Measurements: PubChem BioAssay AID2060891 (Molecular Pharmacology Branch, DTP, NCI, 2025)

System: K98450-129-R-PDC complex spheroid growth, percent test/control
Assay: Anticancer human tumor K98450-129-R-PDC patient-derived colon adenocarcinoma cell line growth inhibition [RAS]
Conditions: for IC50: curve of first compound; for viability, T/C: stronger effect = lower value
Summary of the method: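 Multi-cell-type spheroids: tumor cells plus HUVEC endothelial cells and mesenchymal stem cells. RAS-pathway inhibitors were combined with targeted agents, each dosed in half-log steps down from clinical Cmax, or from 10 microM when Cmax was unknown.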

[1] = second compound 0.000949 µM, first compound 0.0316 µM
[2] = second compound 0.000949 µM, first compound 0.1 µM
[3] = second compound 0.000949 µM, first compound 0.316 µM
[4] = second compound 0.000949 µM, first compound 1 µM
[5] = second compound 0.003 µM, first compound 0.0316 µM
[6] = second compound 0.003 µM, first compound 0.1 µM
[7] = second compound 0.003 µM, first compound 0.316 µM
[8] = second compound 0.003 µM, first compound 1 µM
[9] = second compound 0.00949 µM, first compound 0.0316 µM
[10] = second compound 0.00949 µM, first compound 0.1 µM
[11] = second compound 0.00949 µM, first compound 0.316 µM
[12] = second compound 0.00949 µM, first compound 1 µM
[13] = second compound 0.03 µM, first compound 0.0316 µM
[14] = second compound 0.03 µM, first compound 0.1 µM
[15] = second compound 0.03 µM, first compound 0.316 µM
[16] = second compound 0.03 µM, first compound 1 µM
[17] = second compound 0.0949 µM, first compound 0.0316 µM
[18] = second compound 0.0949 µM, first compound 0.1 µM
[19] = second compound 0.0949 µM, first compound 0.316 µM
[20] = second compound 0.0949 µM, first compound 1 µM
[21] = second compound 0.3 µM, first compound 0.0316 µM
[22] = second compound 0.3 µM, first compound 0.1 µM
[23] = second compound 0.3 µM, first compound 0.316 µM
[24] = second compound 0.3 µM, first compound 1 µM
[25] = second compound 0.000949 µM, first compound 0.00316 µM
[26] = second compound 0.000949 µM, first compound 0.01 µM
[27] = second compound 0.003 µM, first compound 0.00316 µM
[28] = second compound 0.003 µM, first compound 0.01 µM
[29] = second compound 0.00949 µM, first compound 0.00316 µM
[30] = second compound 0.00949 µM, first compound 0.01 µM
[31] = second compound 0.03 µM, first compound 0.00316 µM
[32] = second compound 0.03 µM, first compound 0.01 µM
[33] = second compound 0.0949 µM, first compound 0.00316 µM
[34] = second compound 0.0949 µM, first compound 0.01 µM
[35] = second compound 0.3 µM, first compound 0.00316 µM
[36] = second compound 0.3 µM, first compound 0.01 µM
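Also: spheroids exposed to agents for seven days before the viability readout.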
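For viability, T/C in this document: luminescence used as a proxy for viable cell amount.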

CC1(O)CCCC1n1c(=O)c(C(F)F)cc2cnc(NC3CCN(S(C)(=O)=O)CC3)nc21 (stereo unspecified) + CCn1c(-c2cccnc2C(C)OC)c2c3cc(ccc31)N1CCOC(CC(NC(=O)C(C(C)C)N(C)C(=O)C3(F)CCN(C(=O)C#CC(C)(C)N(C)C)CC3)C(=O)N3CCCC(N3)C(=O)OCC(C)(C)C2)C1
IC50 (second compound 0.000949 µM): 4320 nM
IC50 (second compound 0.003 µM): 376 nM
IC50 (second compound 0.00949 µM): < 31.6 nM
IC50 (second compound 0.03 µM): < 31.6 nM
IC50 (second compound 0.0949 µM): < 31.6 nM
IC50 (second compound 0.3 µM): < 31.6 nM
viability, T/C [1]: 76.1%
viability, T/C [2]: 64%
viability, T/C [3]: 68.3%
viability, T/C [4]: 59.1%
viability, T/C (second compound 0.000949 µM, first compound 3.16 µM): 51.5%
viability, T/C (second compound 0.000949 µM, first compound 10 µM): 44.4%
viability, T/C [5]: 58.2%
viability, T/C [6]: 55.6%
viability, T/C [7]: 52.6%
viability, T/C [8]: 38.6%
viability, T/C (second compound 0.003 µM, first compound 3.16 µM): 34.7%
viability, T/C (second compound 0.003 µM, first compound 10 µM): 31%
viability, T/C [9]: 44.8%
viability, T/C [10]: 38.5%
viability, T/C [11]: 38.3%
viability, T/C [12]: 28.5%
viability, T/C (second compound 0.00949 µM, first compound 3.16 µM): 29.3%
viability, T/C (second compound 0.00949 µM, first compound 10 µM): 27.1%
viability, T/C [13]: 37.4%
viability, T/C [14]: 41.1%
viability, T/C [15]: 30.1%
viability, T/C [16]: 26.1%
viability, T/C (second compound 0.03 µM, first compound 3.16 µM): 31.4%
viability, T/C (second compound 0.03 µM, first compound 10 µM): 28.1%
viability, T/C [17]: 31.5%
viability, T/C [18]: 31.9%
viability, T/C [19]: 32.2%
viability, T/C [20]: 25.3%
viability, T/C (second compound 0.0949 µM, first compound 3.16 µM): 29.8%
viability, T/C (second compound 0.0949 µM, first compound 10 µM): 22.7%
viability, T/C [21]: 31.9%
viability, T/C [22]: 33.7%
viability, T/C [23]: 32.6%
viability, T/C [24]: 26.8%
viability, T/C (second compound 0.3 µM, first compound 3.16 µM): 29.5%
viability, T/C (second compound 0.3 µM, first compound 10 µM): 19.6%

Nc1ccn(C2OC(CO)C(O)C2(F)F)c(=O)n1 (stereo unspecified) + CCn1c(-c2cc(N3CCN(C)CC3)cnc2C(C)OC)c2c3cc(ccc31)-c1csc(n1)CC(NC(=O)C1CC1C)C(=O)N1CCCC(N1)C(=O)OCC(C)(C)C2
IC50 (second compound 0.000949 µM): 254 nM
IC50 (second compound 0.003 µM): 133 nM
IC50 (second compound 0.00949 µM): 26.4 nM
IC50 (second compound 0.03 µM): < 3.16 nM
IC50 (second compound 0.0949 µM): < 3.16 nM
IC50 (second compound 0.3 µM): < 3.16 nM
viability, T/C [25]: 93.1%
viability, T/C [26]: 82.9%
viability, T/C [1]: 80.5%
viability, T/C [2]: 56.4%
viability, T/C [3]: 50.5%
viability, T/C [4]: 37.6%
viability, T/C [27]: 98.1%
viability, T/C [28]: 80.1%
viability, T/C [5]: 62.3%
viability, T/C [6]: 52.8%
viability, T/C [7]: 44.4%
viability, T/C [8]: 37.3%
viability, T/C [29]: 77%
viability, T/C [30]: 62.2%
viability, T/C [9]: 49.2%
viability, T/C [10]: 33.2%
viability, T/C [11]: 30%
viability, T/C [12]: 23.8%
viability, T/C [31]: 43.4%
viability, T/C [32]: 45.9%
viability, T/C [13]: 33.5%
viability, T/C [14]: 23.1%
viability, T/C [15]: 20.7%
viability, T/C [16]: 15.2%
viability, T/C [33]: 21.1%
viability, T/C [34]: 21.4%
viability, T/C [17]: 14.4%
viability, T/C [18]: 11.9%
viability, T/C [19]: 14.8%
viability, T/C [20]: 11.5%
viability, T/C [35]: 9.67%
viability, T/C [36]: 13.7%
viability, T/C [21]: 12.9%
viability, T/C [22]: 11.4%
viability, T/C [23]: 10.9%
viability, T/C [24]: 9.09%

Nc1ccn(C2OC(CO)C(O)C2(F)F)c(=O)n1 (stereo unspecified) + CCn1c(-c2cccnc2C(C)OC)c2c3cc(ccc31)N1CCOC(CC(NC(=O)C(C(C)C)N(C)C(=O)C3(F)CCN(C(=O)C#CC(C)(C)N(C)C)CC3)C(=O)N3CCCC(N3)C(=O)OCC(C)(C)C2)C1
IC50 (second compound 0.000949 µM): 18.4 nM
IC50 (second compound 0.003 µM): 9.33 nM
IC50 (second compound 0.00949 µM): < 3.16 nM
IC50 (second compound 0.03 µM): < 3.16 nM
IC50 (second compound 0.0949 µM): < 3.16 nM
IC50 (second compound 0.3 µM): < 3.16 nM
viability, T/C [25]: 73.8%
viability, T/C [26]: 43%
viability, T/C [1]: 51.7%
viability, T/C [2]: 39.8%
viability, T/C [3]: 32.4%
viability, T/C [4]: 25.3%
viability, T/C [27]: 65.6%
viability, T/C [28]: 43.6%
viability, T/C [5]: 42.4%
viability, T/C [6]: 26.9%
viability, T/C [7]: 24.5%
viability, T/C [8]: 17%
viability, T/C [29]: 49.1%
viability, T/C [30]: 38.4%
viability, T/C [9]: 29.8%
viability, T/C [10]: 21.9%
viability, T/C [11]: 19.9%
viability, T/C [12]: 18.1%
viability, T/C [31]: 39%
viability, T/C [32]: 34.8%
viability, T/C [13]: 26.4%
viability, T/C [14]: 20.7%
viability, T/C [15]: 20.6%
viability, T/C [16]: 17.3%
viability, T/C [33]: 32.4%
viability, T/C [34]: 37.1%
viability, T/C [17]: 25.7%
viability, T/C [18]: 21.2%
viability, T/C [19]: 20.8%
viability, T/C [20]: 16.8%
viability, T/C [35]: 33.5%
viability, T/C [36]: 32.1%
viability, T/C [21]: 26.6%
viability, T/C [22]: 19.1%
viability, T/C [23]: 19.5%
viability, T/C [24]: 15.6%
